Results on two compounds are retold here after article PMC11017246, “Discovery of GLPG2737, a Potent Type 2 Corrector of CFTR for the Treatment of Cystic Fibrosis in Combination with a Potentiator and a Type 1 Co-corrector” (Journal of Medicinal Chemistry, 2024).

By pEC50 is commonly meant the EC50 on a negative log10 scale, so that one unit is a factor of ten.

Molecules are shown by their SMILES. pEC50: −log10 of the molar value. Where “and” joins values, the source holds several entries; their conditions need not be identical. Identical values can stand only once.

A short description of data set [1]: PK dog. Type of data set: in vivo. Conditions: for CLu dog: unbound clearance; for clearance: read-out: CLp dog (converted); for Vd: read-out: Vss dog. The procedure:
These studies were performed with non-naïve male Beagle dogs (age 13.8 months old, origin: Marshall US, North Rose, NY 14516, USA; age 15.8 months old, origin: Harlan; age 17.7 months old, origin: Harlan). Dogs (n = 3) were dosed iv via a 10 min infusion via a catheter with a dose level of 1 mg/kg. After a washout of 3 days, they were dosed orally as a single gavage with a dose level of 5 or 1 mg/kg in PEG400/MC 0.5% or MC 0.5%. Before administration by the po route, animals were fasted for a period of at least 12 h before treatment, and food was given just after the 3 h of blood sampling. All animals had free access to tap water. Blood samples were taken without an anesthetic from a jugular or cephalic vein into tubes containing lithium heparin as an anticoagulant. Blood samples were taken up to 24 h after the start of the infusion. After centrifugation, the resulting plasma samples were assayed by LC-MS/MS with a nongood laboratory practice (non-GLP)-validated method. PK parameters were calculated by noncompartmental analysis using WinNonlin software (Certara, Princeton, NJ, USA).

Data set [2] can be described thus: Plasma protein binding, human. Conditions: for fraction unbound at 4 h, 5 μM: human, pH 7.4, human plasma, read-out: PPB % human (converted). Type of data set: in vitro ADME.
Data set [3] deals with T1, ΔF508 CFTR (Homo sapiens, UniProt P13569, DEL508-508).
T1 construct: host or cells: CFBE41o- TetON cells, expression induced with doxycycline
Put plainly: TECC (transepithelial clamp circuit) in primary CF-derived HBE cells. Type of data set: cell-based. The note with it: for Emax / pEC50: primary ΔF508 homozygous HBE cells, 24 h incubation, with GLPG2222; for Emax: read-out: TECC HBE with GLPG2222 % max activation; for pEC50: read-out: TECC HBE with GLPG2222 EC50.

Data set [4] in a line: Hepatocyte stability, dog. Type of data set: in vitro ADME. Conditions: for CLint scaled at 1 μM: read-out: Hep CLint,u dog (converted). How it is done:
(§1) The hepatocyte stability assay was performed by incubation of test compound at 1 μM, 0.03% DMSO in modified Krebs–Henseleit buffer with suspension of pooled cryopreserved hepatocytes (BioIVT, Hicksville, NY, USA) from mouse, rat, dog, or human (BioIVT, Hicksville, NY, USA) at 0.5 million viable hepatocytes/mL. Before adding the hepatocytes (time zero) and after 10, 20, 45, 90, 120, and 180 min of incubation (n = 2) at 37 °C while gently shaking, the reaction was stopped and proteins were precipitated with an excess of acetonitrile containing an internal standard. The samples were mixed, centrifuged, and filtered, and the supernatant was analyzed by liquid chromatography–mass spectrometry/mass spectrometry (LC–MS/MS). The instrument responses (peak areas/IS peak areas) were referenced to the zero-time point samples (considered as 100%) in order to determine the percentage of compound remaining.

Data set [5] is described as follows: Hepatocyte stability, rat. Type of data set: in vitro ADME. Conditions: for CLint scaled at 1 μM: read-out: Hep CLint,u rat (converted). How it is done: as §1
A short description of data set [6]: Plasma protein binding, dog. Type of data set: in vitro ADME. The note with it: for fraction unbound at 4 h, 5 μM: dog, pH 7.4, dog plasma, read-out: PPB % dog (converted). How it is done: Plasma protein binding was determined by equilibrium dialysis using the Pierce Red Device plate with inserts (ThermoScientific). Test compound at 5 μM (0.5% DMSO) spiked in freshly thawed human, rat, mouse, or dog plasma (Bioreclamation INC, Westbury, NY, USA) was dialyzed against phosphate-buffered saline (PBS, pH 7.4) at 37 °C under shaking for 4 h. Aliquots were taken from each side of the well, and matrix matched. Proteins were precipitated with an excess of acetonitrile, samples were mixed and centrifuged, and the supernatant was analyzed by liquid chromatography–mass spectrometry/mass spectrometry (LC–MS/MS). Addition of compound peak areas in the buffer chamber and the plasma chamber was considered to be 100% compound.

Setting [7] is: male, beagle, plasma, 1 mg/kg, iv.

T1 sequence (P13569 with tags, fused parts or gaps DEL508-508): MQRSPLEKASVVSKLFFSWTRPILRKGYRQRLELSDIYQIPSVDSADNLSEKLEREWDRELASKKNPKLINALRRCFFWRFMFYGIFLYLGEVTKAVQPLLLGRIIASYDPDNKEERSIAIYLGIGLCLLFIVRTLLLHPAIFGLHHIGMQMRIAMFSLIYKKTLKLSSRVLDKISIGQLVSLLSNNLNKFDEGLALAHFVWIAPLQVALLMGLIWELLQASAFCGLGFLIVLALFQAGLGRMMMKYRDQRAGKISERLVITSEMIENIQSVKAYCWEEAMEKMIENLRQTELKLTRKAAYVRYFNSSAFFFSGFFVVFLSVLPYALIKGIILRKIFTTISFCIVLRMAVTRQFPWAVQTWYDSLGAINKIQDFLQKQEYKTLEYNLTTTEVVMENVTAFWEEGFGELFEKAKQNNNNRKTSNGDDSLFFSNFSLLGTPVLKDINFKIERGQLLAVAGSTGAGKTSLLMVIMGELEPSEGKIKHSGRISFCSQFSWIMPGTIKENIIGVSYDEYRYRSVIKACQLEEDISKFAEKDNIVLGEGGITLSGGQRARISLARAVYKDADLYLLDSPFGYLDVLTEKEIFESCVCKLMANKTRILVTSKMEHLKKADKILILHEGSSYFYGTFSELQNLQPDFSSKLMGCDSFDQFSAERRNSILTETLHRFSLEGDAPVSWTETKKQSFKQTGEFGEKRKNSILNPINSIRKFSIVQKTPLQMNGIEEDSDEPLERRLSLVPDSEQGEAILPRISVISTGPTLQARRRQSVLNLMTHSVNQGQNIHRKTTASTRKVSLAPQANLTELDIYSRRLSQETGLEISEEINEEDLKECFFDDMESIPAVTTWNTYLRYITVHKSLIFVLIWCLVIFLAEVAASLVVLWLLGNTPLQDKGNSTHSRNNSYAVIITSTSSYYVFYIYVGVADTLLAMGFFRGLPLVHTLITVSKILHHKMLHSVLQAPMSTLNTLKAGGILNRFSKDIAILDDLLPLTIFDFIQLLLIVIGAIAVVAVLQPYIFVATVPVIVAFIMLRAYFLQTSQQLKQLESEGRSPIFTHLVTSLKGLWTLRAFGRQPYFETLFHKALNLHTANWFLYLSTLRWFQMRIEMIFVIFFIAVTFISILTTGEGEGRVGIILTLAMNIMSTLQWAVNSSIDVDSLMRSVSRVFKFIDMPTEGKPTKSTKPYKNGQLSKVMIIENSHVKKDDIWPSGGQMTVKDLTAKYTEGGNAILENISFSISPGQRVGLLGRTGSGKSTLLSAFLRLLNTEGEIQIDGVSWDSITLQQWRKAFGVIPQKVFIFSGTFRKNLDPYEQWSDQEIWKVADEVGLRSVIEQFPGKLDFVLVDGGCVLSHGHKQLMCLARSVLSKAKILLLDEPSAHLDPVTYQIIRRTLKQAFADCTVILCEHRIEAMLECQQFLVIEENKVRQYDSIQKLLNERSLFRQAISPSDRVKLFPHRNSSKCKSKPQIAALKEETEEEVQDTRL

The compound `CN(C)S(=O)(=O)NC(=O)c1cc(N2CCC(N3CCOCC3)CC2)c2c(C3CCC3)nn(-c3ccc(F)cc3)c2n1` [Compound 51] yielded a CLu dog in data set [1] (iv) of 202 mL/min/kg. The half-life at 24 h in data set [1] (male, beagle, plasma, 0.1 mg/kg, iv, read-out: t1/2 iv dog (converted)) is 4.9 h. Also, in data set [1] (setting [7]), the clearance is 2.67 mL/min/kg and the Vd was found to be 0.9 L/kg. Also, in data set [2] (human plasma), the PPB % human is 99% and 98.7%. In addition, the fraction unbound at 4 h, 5 μM in data set [2] (plasma) was 0.02. In data set [3], the Emax was determined as 371% and the pEC50 was 7.17. In data set [4] (pooled cryopreserved hepatocytes in suspension, dog hepatocytes), the CLint scaled at 1 μM is 31.7 mL/min/kg. In data set [5] (pooled cryopreserved hepatocytes in suspension), the CLint scaled at 1 μM was 49 mL/min/kg. In data set [6] (dog plasma), the PPB % dog is given as 98,7%. In data set [6] (plasma), the fraction unbound at 4 h, 5 μM was 0.01.
Regarding `COC1CCN(C2CCN(c3cc(C(=O)NS(=O)(=O)N(C)C)nc4c3c(C3CCC3)nn4-c3ccc(F)cc3)CC2)CC1` [Compound 52, 3-Cyclobutyl-N-(N,N-dimethylsulfamoyl)-1-(4-fluorophenyl)-4-(4-methoxy-[1,4′-bipiperidin]-1′-yl)-1H-pyrazolo[3,4-b]pyridine-6-carboxamide], the “F (%) dog” value in data set [1] (5 mg/kg po) came to 59.5%. Also, the CLu dog in data set [1] (iv) amounted to 178 mL/min/kg. In data set [1] (setting [7]), the clearance is 3.5 mL/min/kg and the Vd stood at 1.37 L/kg. Moreover, the half-life in data set [1] (male, beagle, plasma, 1 mg/kg, iv, read-out: t1/2 iv dog (converted)) is 5.4 h. In addition, the fraction unbound at 4 h, 5 μM in data set [2] (human plasma) was 0.02. Besides, in data set [3] (addition to the combination of potentiator GLPG1837 and C1 corrector 4), the “increase in F508del CFTR activity” value is recorded as 8 fold. For the same compound, in data set [3], the Emax worked out at 467% and the pEC50 is 7.33. For the same compound, the “Hepatocyte stability: %LBF dog” value in data set [4] (dog hepatocytes) stood at 14 %LBF. Further, the “Hepatocyte stability: predicted hepCl dog” value in data set [4] (dog hepatocytes, 1 µM) is less than 5.83 mL/min/kg. For the same compound, in data set [4] (dog, pooled cryopreserved dog hepatocytes in suspension), the CLint scaled at 1 μM was less than 24.8 mL/min/kg. In data set [5] (rat hepatocytes), the “Hepatocyte stability: %LBF rat” value came to 30 %LBF and the CLint scaled at 1 μM was 66.2 mL/min/kg. The “Hepatocyte stability: predicted hepCl rat” value in data set [5] (rat hepatocytes, 1 µM) was 25.5 mL/min/kg. Besides, the fraction unbound at 4 h, 5 μM in data set [6] (dog plasma) was 0.025.
